Results: patent publication EP0545103A1, “Insecticidal, acaricidal and molluscicidal 1-(substituted) thioalkylpyrroles” (priority 1991, dated 1993)

What was measured:
[1] = system: Puccinia recondita, tritici; experiment: In vivo fungicidal activity, Wheat Leaf Rust (WLR); details: rate 400 ppm, rating, averaged
Procedure: (§1) Test compounds are dissolved in acetone and diluted with deionized water containing about 0.05% TWEEN 20®, a polyoxyethylene sorbitan monolaurate surfactant manufactured by Atlas Chemical Industries, to give a concentration of 400 ppm. Subsequent dilutions are made with an 0.05% aqueous solution of TWEEN 20®.
(§2) Host plants are sprayed with test solution, dried and inoculated with fungi. When disease symptom development is optimal, the plants are rated for disease control according to the rating scale shown below. Each test contains inoculated treated plants, inoculated untreated plants and a reference standard.
(§3) When more than one test is run, the data are averaged.

[2] = system: Heliothis virescens, 3rd instar tobacco budworm; experiment: Tobacco budworm 3rd instar test, dipped cotton cotyledons; assay type: in vivo; design: key: 0: no effect; 10-25% kill; 26-35% kill; 36-45% kill; 46-55% kill; 56-65% kill; 66-75% kill; 76-85% kill; 86-99% kill; 9: 100% kill; details: mortality rating after 3 days
Summary of the method: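 Rating-scale scores of mortality and reduced feeding, taken 3 days after single third-instar larvae were caged on dried cotton cotyledon quarters. Cotyledons were pre-dipped in test solutions diluted with water from a 10,000 ppm stock in 35% acetone.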

[3] = system: Pythium ultimum; experiment: In vitro fungicidal activity, mycelial growth inhibition on agar (Pyth); assay type: cell-based; details: Globisporangium ultimum, 48 h, two days
Procedure: (§4) Test compounds are dissolved in acetone, diluted with sterile, deionized water and mixed with a partially cooled, autoclaved, chemically defined agar medium. This mixture is poured into several 100mm x 15mm sterile plastic plates and allowed to solidify. The surface of each plate is inoculated with a single disc of mycelium and agar cut with an 8mm diameter cork borer from actively growing cultures of assay fungi on a chemically defined agar medium. The plates are incubated at room temperature. Growth inhibition is determined when the mycelial growth on unamended control media has reached the edge of the petri plates. The time interval varies depending on the growth rate of the fungus; two days for Pythium ultimum (pyth) and Rhizoctonia solani (Rhiz) , five days for Botrytis cinerea (Betry) and 7-10 days for Pseudocercosporella herpotrichoides (Pseudo). Each colony diameter is measured and compared with the untreated control and the percent inhibition is calculated as follows: [formula] Each test includes a solvent blank consisting of the formulation without a test compound in addition to the untreated control.
(§5) Assay fungi include the plant pathogens, Pythium ultimum (Pyth) and Rhizoctonia solani (Rhiz).
(§6) When more than one test is run the data are averaged.

[4] = system: Plasmopara viticola; experiment: In vivo fungicidal activity, Grape Downy Mildew (GDM); details: rate 400 ppm, rating, averaged
Procedure: as §1, §2, §3

[5] = system: Rhizoctonia solani; experiment: In vitro fungicidal activity, mycelial growth inhibition on agar (Rhiz); assay type: cell-based; details: 48 h, two days
Procedure: as §4, §5, §6

[6] = system: Erysiphe graminis, tritici; experiment: In vivo fungicidal activity, Wheat Powdery Mildew (WPM); details: rate 400 ppm, rating, averaged
Procedure: as §1, §2, §3

[7] = system: Cercospora beticola; experiment: In vivo fungicidal activity, Sugarbeet Cercospora (SBC); details: rating, averaged
Procedure: as §1, §2, §3

[8] = system: Venturia inaequalis; experiment: In vivo fungicidal activity, Apple Scab (AS); details: rate 400 ppm, host plants sprayed then inoculated, rating, averaged
Procedure: as §1, §2, §3

[9] = system: Tetranychus urticae (OP-resistant strain), 2-spotted spider mite; experiment: 2-spotted spider mite test, dipped infested limabean plants; assay type: in vivo; design: key: 0: no effect; 10-25% kill; 26-35% kill; 36-45% kill; 46-55% kill; 56-65% kill; 66-75% kill; 76-85% kill; 86-99% kill; 9: 100% kill
Summary of the method: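 Compound dissolved at 10,000 ppm in 35% aqueous acetone, then water-diluted; limabean primary leaves carrying ~100 OP-resistant mites each are dipped 3 s and dried. Adult mortality read on one leaf after 2 days, eggs/newly emerged nymphs on another after 5 days, scored by rating scale.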

[10] = system: Empoasca abrupta, adult, western potato leafhopper; experiment: Western potato leafhopper contact test, dipped limabean leaf; assay type: in vivo; design: key: 0: no effect; 10-25% kill; 26-35% kill; 36-45% kill; 46-55% kill; 56-65% kill; 66-75% kill; 76-85% kill; 86-99% kill; 9: 100% kill
Summary of the method: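 Sieva limabean leaf dipped 3 s in compound solution (diluted in water from 10,000 ppm stock in 35% acetone), dried, and infested with about 10 adult leafhoppers on moist filter paper. Mortality counted after 2 days and scored on a rating scale.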

[11] = system: Aphis fabae, mixed instar, bean aphid; experiment: Bean aphid spray test on nasturtium; assay type: in vivo; design: key: 0: no effect; 10-25% kill; 26-35% kill; 36-45% kill; 46-55% kill; 56-65% kill; 66-75% kill; 76-85% kill; 86-99% kill; 9: 100% kill; details: 100 ppm
Summary of the method: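 Mortality rated on a scale 2 days after treatment of aphid-infested (100-200 per plant, infested a day earlier) ~5 cm nasturtiums sprayed to complete coverage. Spray solutions: 10,000 ppm compound in 35% acetone in water, with further water dilutions.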

[12] = 10 ppm, mortality rating after 2 days
[13] = 300 ppm, adult mites, rating scale 0-9
[14] = 300 ppm, mite eggs, rating scale 0-9
[15] = 300 ppm, mite nymphs, rating scale 0-9
[16] = 10 ppm, contact, rating scale 0-9
[17] = 100 ppm, contact, rating scale 0-9
[18] = 10 ppm, adult mites, rating scale 0-9
[19] = 10 ppm, mite nymphs, rating scale 0-9

Structure (SMILES)	TOBACCO BUDWORM 3rd Instar ([2]; 100 ppm)	TOBACCO BUDWORM 3rd Instar ([2]; 1000 ppm)	TOBACCO BUDWORM 3rd Instar ([2]; 10 ppm)	OP-RESISTANT MITES Adult [9, 13]	OP-RESISTANT MITES Egg [9, 14]	OP-RESISTANT MITES Nymph [9, 15]	LEAFHOPPER Contact [10, 16]	LEAFHOPPER Contact [10, 17]	APHIDS ([11]; rating scale 0-9)	further results
N#Cc1c(Br)c(Br)n(CSc2ccccc2)c1-c1ccc(C(F)(F)F)cc1 [Example 45, 4,5-dibromo-1-[(phenylthio)methyl]-2-(alpha, alpha,alpha-trifluoro-p-tolyl)pyrrole-3-carbonitrile]	0	0								Disease Control WLR [1]: 6.0; inhibition at 1 ppm ([3]; rate 1 ppm in agar): 0%; inhibition at 10 ppm ([3]; rate 10 ppm in agar): 7%; inhibition at 25 ppm ([3]; rate 25 ppm in agar): 4.5%; Disease Control GDM [4]: 0 (0); inhibition at 1 ppm ([5]; rate 1 ppm in agar): 0%; inhibition at 10 ppm ([5]; rate 10 ppm in agar): 3.5%; inhibition at 25 ppm ([5]; rate 25 ppm in agar): 2%; Disease Control WPM [6]: 1.0; Disease Control SBC ([7]; rate 25 ppm): 6.0; Disease Control SBC ([7]; rate 100 ppm): 7.0; Disease Control SBC ([7]; rate 400 ppm): 7.5; Disease Control AS [8]: 0 (0)
N#Cc1c(Cl)c(C(F)(F)F)n(CSC2=NCCN2)c1-c1ccc(Cl)cc1 [Example 4]	9 (100% kill)	9 (100% kill)	9 (100% kill)							OP-RESISTANT MITES Adult [9, 12]: 0; OP-RESISTANT MITES Egg ([9]; 10 ppm, rating after 5 days): 0; OP-RESISTANT MITES Nymph ([9]; 10 ppm, rating after 5 days): 0; OP-RESISTANT MITES Egg ([9]; 100 ppm, rating after 5 days): 0; OP-RESISTANT MITES Nymph ([9]; 100 ppm, rating after 5 days): 0; OP-RESISTANT MITES Egg ([9]; 300 ppm, rating after 5 days): 9 (100% kill); LEAFHOPPER Contact [10, 12]: 0; LEAFHOPPER Contact ([10]; 100 ppm, mortality rating after 2 days): 9 (100% kill); APHIDS ([11]; spray, mortality rating after 2 days): 0
CN=C(NC)SCn1c(Cl)c(C#N)c(Cl)c1-c1ccc(Cl)c(Cl)c1 [Example 19]	9 (100% kill)	9 (100% kill)	0	5 (56-65% kill)	0	0	0	9 (100% kill)	0	
N#Cc1c(Br)c(C(F)(F)F)n(CSC2=NCCS2)c1-c1ccc(Cl)cc1 [Example 16]	9 (100% kill)	9 (100% kill)	9 (100% kill)	0	0	0	9 (100% kill)	9 (100% kill)	8 (86-99% kill)	
CN=C(NC)SCn1c(Cl)c(Cl)c(C#N)c1-c1ccc(Cl)c(Cl)c1 [Example 15]			0	0	0	0	0	6 (66-75% kill)	0	
CN(C)C(=S)SCn1c(Cl)c(C#N)c(Cl)c1-c1ccc(Cl)c(Cl)c1 [Example 36]	9 (100% kill)	9 (100% kill)	0	7 (76-85% kill)	0	0		6 (66-75% kill)	0	OP-RESISTANT MITES Adult [9, 18]: 0; OP-RESISTANT MITES Egg ([9]; 10 ppm, mite eggs, rating scale 0-9): 0; OP-RESISTANT MITES Nymph [9, 19]: 0; OP-RESISTANT MITES Adult ([9]; 100 ppm, adult mites, rating scale 0-9): 0; OP-RESISTANT MITES Egg ([9]; 100 ppm, mite eggs, rating scale 0-9): 0; OP-RESISTANT MITES Nymph ([9]; 100 ppm, mite nymphs, rating scale 0-9): 0
CCOC(=S)SCn1c(Cl)c(C#N)c(Cl)c1-c1ccc(Cl)c(Cl)c1 [Example 37]	9 (100% kill)	9 (100% kill)	0		0	0		6 (66-75% kill)	0	OP-RESISTANT MITES Adult [9, 18]: 0; OP-RESISTANT MITES Nymph [9, 19]: 4 (46-55% kill)
